Source: PMC12535076, “Neurotherapeutic effects of Vutiglabridin as a Paraoxonase-2 modulator in preclinical models of Parkinson’s disease” (Molecular Neurodegeneration, 2025)

Key:
[1] = target: T1, PON2 in mouse brain tissue (Mus musculus, UniProt Q62086); assay: Cellular thermal shift assay (CESTA) of PON2 in brain tissue; type: binding
T1 construct: Brain tissue pieces were pulverized under frozen conditions in a mortar with liquid nitrogen; from tissue; host or cells: brain tissue of mice dosed orally with vehicle or Vuti for 5 days
T1 sequence (Q62086 whole entry): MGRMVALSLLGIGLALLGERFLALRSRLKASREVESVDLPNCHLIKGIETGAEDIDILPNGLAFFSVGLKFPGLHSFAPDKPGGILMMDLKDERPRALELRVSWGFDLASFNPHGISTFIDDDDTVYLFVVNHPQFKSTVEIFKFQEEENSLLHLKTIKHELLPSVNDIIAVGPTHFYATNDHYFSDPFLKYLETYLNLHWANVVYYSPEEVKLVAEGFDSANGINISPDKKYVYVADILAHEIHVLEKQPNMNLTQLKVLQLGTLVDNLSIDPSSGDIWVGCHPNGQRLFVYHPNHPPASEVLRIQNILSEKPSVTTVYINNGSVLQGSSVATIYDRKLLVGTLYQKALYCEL
Method: Interaction of PON2 and Vuti in mouse brain tissue was evaluated by Cellular Thermal Shift Assay (CESTA®) in vivo [65] (Pelago Bioscience AB, Solna, Sweden). Briefly, mice were orally administered vehicle or Vuti at 50 mg/kg (Vuti 50) or 100 mg/kg (Vuti 100) for 5 days. Brain tissue pieces were pulverized under frozen conditions in a mortar with liquid nitrogen. Equal amounts of tissue powder were placed into 8 or 12 separate PCR strip tubes for each set of the treated tissues and kept frozen until heat challenged. Pre-heated 60 µl HBSS buffer was added to the tubes and samples were immediately subjected to an 8 or 12-step heat challenge for 3 min between 37 °C and 59 °C. Samples were then snap-frozen in liquid nitrogen and lysed by freeze-thawing. After the first round of freeze thawing 1% Brij 35 was added to the samples and the samples were incubated with shaking for 20 min at 4 °C before the two last rounds of freeze thawing. After centrifugation at 20 000 x g for 20 min, 35 µl of the supernatant was mixed with 17,5 µl gel loading buffer (NuPAGE LDS sample buffer, Thermo Fisher Scientific, Waltham, MA, USA). Total protein lysate (6 µg) was separated on 12% SDS-PAGE gels. […] Western Blot detected PON2 protein (abcam, ab183718) normalized to SOD-1, a temperature stable protein band observed in the full protein gel detection with house-keeping gene.

[2] = system: AAV-A53T injected C57BL/6J mice; assay: AAV-α-syn A53T-injected mouse model; type: in vivo
Method: Male C57BL/6J mice (7 week-age-old) were used for inducing the α-syn A53T model and treating Vuti and vehicle. All mice were maintained in a specific pathogen-free animal facility under a 12:12-h light-dark cycle (lights on at 8:00 AM) at a temperature of 21℃ and allowed ad libitum access to food and water. All experiments and animal care were performed in accordance with the guidelines of the Institutional Animal Care and Use Committee (IACUC) of IBS, Daejeon, South Korea (IBS-IBC-2022-12). Mice were anesthetized under isoflurane anesthesia (induction: 3%–4%, maintenance: 1.5%–2%) and placed into stereotaxic (RWD, China). For establishing the α-syn A53T mouse model, 2µL of AAV-CMV-A53T-Asyn or AAV-CMV-EGFP (5 × 10^12 genomic copies/mL, packaged by the IBS virus facility) was injected into the SNpc (AP − 3.2 mm, ML ± 1.3 mm, DV − 4.0 mm relative to the bregma; 0.2µL/min) bilaterally. Oral administration of 50 mg/kg Vuti (Vuti 50) or the vehicle (Veh) was started 5 weeks after the virus injection, once a day for 12 weeks. Mice were used for behavior tests and immunostaining after completing drug treatment. Vertical grid test was performed as described before. For 5 days, mice were allowed for habituation in the test room. Prior to the trial session, the mice were acclimated to the vertical grid for 2 days. For the experiment, individual mice were gently placed 3 cm from the top, facing upward, and allowed to turn around and climb down. […] Starting from the fourth week after the injection, trials are conducted at two-week intervals.
Mice were deeply anaesthetized with isoflurane and perfused transcranial with 0.9% saline ice-cold 4% paraformaldehyde (PFA). Excised brains were postfixed at 4 °C overnight and transferred to 30% sucrose for 48 h for dehydration. Coronal sections of 30 μm thickness (20 μm thickness for super-resolution imaging) were prepared in a cryostat and stored in a storage solution at 4 °C. Brain tissues were washed in PBS and incubated in a blocking solution (0.3% Triton X-100, 2% Donkey Serum, 2% Goat Serum in 0.1 M PBS). Primary antibodies were added to the blocking solution at desired dilution and the sections were incubated in a shaker at 4 °C overnight. Primary antibodies used for immunostaining were anti-TH (rabbit, 1:200, Pel-freez, P40101-150), GFAP (chicken, 1:500, Millipore, AB5541), Iba-1 (rabbit, 1:500, Wako, 019-19741), DDC (rabbit, 1:200, abCam, ab3905), GABA (guinea pig, 1:200, Millipore, AB175), anti-PON2 (rabbit, 1:200, abCam, ab183710). Unbound antibodies were washed off using PBS, followed by corresponding secondary antibody incubation (in blocking solution) for 1–2 h at room temperature. Unbound antibodies were washed with PBS and DAPI was added to PBS (1:1500 dilution). Sections were mounted with fluorescent mounting medium (Dako) and dried. A series of fluorescent images were obtained using Zeiss LSM900 confocal microscope. Super-resolution image for PON2 signals imaged by Zeiss Lattice SIM (Structure-illumination microscope) and all images were processed using ImageJ (Fiji) software.

[3] = system: Sprague-Dawley rats; assay: Functional observational battery (FOB) evaluation; type: in vivo, rat; conditions: male SD rats, single oral 500, 1000, 2000 mg/kg; 0.5, 1, 3, 6, 24 h
Method: To further investigate the potential neurotoxicity of Vuti in vivo, a standard functional observational battery (FOB) evaluation was performed. Male Sprague-Dawley rats were administered single high doses of Vuti – 500, 1000, and 2000 mg/kg. Subsequently, two observers blindly scored the behavior of animals in the home cage, open field, hand-held, and sensory-motor function at time points of 0.5, 1, 3, 6, and 24 h.
Male 6-week-old Sprague-Dawley Rat was orally administered with 0, 500, 1000, or 2000 mg/kg of Vuti (n = 8 per group). Two observers performed blind observations following the standard guideline (3) at 0.5, 1-, 3-, 6-, and 24-hours post-dose on the basis of the pharmacokinetics parameters. […] NC = No change, NSC = No statistically significant change.

CCOc1ccc(C2COc3c(ccc4c3CCC(C)(C)O4)C2)c(O)c1 (centres unmarked) [Vuti, Vutiglabridin]
increase of the Tm of PON2 over vehicle group ([1]; Vuti 50 mg/kg for 5 days (Vuti 50)): approximately 1.3 °C
increase of the Tm of PON2 over vehicle group ([1]; Vuti 100 mg/kg for 5 days (Vuti 100)): ~1.4 °C
GFAP and Iba1 levels (astrocytes and microglia) ([2]; A53T mice, Vuti 50 mg/kg): normalization
amount of GABA in astrocytes ([2]; A53T mice, Vuti 50 mg/kg): decrease
intracellular α-syn levels ([2]; A53T mice, Vuti 50 mg/kg): decreased
step failure in the vertical grid test ([2]; A53T mice, Vuti 50 mg/kg oral from week 5, within 5 to 7 weeks of administration (weeks 10-12)): statistically significant improvements
DDC-positive cells in SNpc ([2]; A53T mice, Vuti 50 mg/kg, 12 weeks after AAV-A53T injection): significantly increased
TH-positive cells in SNpc ([2]; A53T mice, Vuti 50 mg/kg, 12 weeks after AAV-A53T injection, vs vehicle): significant increase
PON2 protein level ([2]; A53T mouse model and WT + Vuti group, IHC and Western blot): remained unchanged
TH+/DDC+ ratio ([2]; α-syn A53T overexpressed PD model): doubled
behaviors in FOB (home cage, open field, hand-held, sensory-motor function) [3]: did not induce statistically significant changes
